Entries after “also recorded” stand apart in the source; their conditions may differ.
Columns and labels:
[1] = test system: engineered heart tissues (EHTs) derived from human induced pluripotent stem cells; assay: Long-term fasudil effects on engineered heart tissues (EHTs) with and without TGFβ, stress versus strain; assay type: cell-based
Procedure: FIGS. 16A-16D graphically illustrate the long-term effects of fasudil. The rates of stretch relative to the unstretched tissue length are depicted as strain (error bar=standard deviation of error). Number of samples are 2 or 4 in each condition.
To exemplify this patient stratification process, engineered heart tissues (EHTs) were prepared, the tissues containing cardiac fibroblasts (10% of cardiomyocytes at fabrication) derived from human induced pluripotent stem cells (iPSCs). Five days post-fabrication, one half of the engineered heart tissues (EHTs) was cultured regularly (FIG. 16A and FIG. 16C), and the other half was treated with 1 ng/mL TGFβ (FIG. 16B and FIG. 16D). […] The effect was clearly represented in the elevated passive stress-strain curve and its slope represented by the closed circles (0 μM fasudil data points) in FIG. 16C and FIG. 16D.
After 15 days, the EHTs, both with and without TGFβ treatment, were administered fasudil at concentrations of […] (FIGS. 16A-16D). […] However, by day 29, fasudil reduced cardiac contractility in EHTs, irrespective of TGFβ treatment.

[2] = test system: human micro-heart tissues (NuHeart); assay: Mature NuHeart micro-heart tissue with and without TGFβ: length-tension, contractile force, ISO response, αSM actin; assay type: cell-based
Procedure: FIG. 11C-11F graphically show length-tension relationships of cardiac systolic ([…]) and diastolic (FIG. 10E, FIG. 10F) curves, monitored>30 days with and without TGFβ (10 ng/mL).
FIG. 11G is a bar graph illustrating that the positive inotropic response to ISO ([…]) were compared with and without TGFβ (bars=s.d., n=7) at the end of 35-day tissue development.
FIG. 11I-11J show profiles of cardiac contractile force with and without TGFβ.
A semi-automated, multi-point quality control (QC) production-process fabricated mature micro-heart tissues in 96-well format. The patient-derived (or gene-edited) iPSCs that were passed the QC test of pluripotency and purity go through the next step. This robust protocol of iPSC differentiation produced cardiomyocytes and non-muscle cells. Various parameters were optimized to produce highly purified (>95%) cardiomyocytes and cardiac non-muscle cells. Various differentiation techniques, a culture robot ACTRO™, and culture media may be used for cardiomyocyte (CM) differentiation and maintenance development and validation. FIGS. 9A-9D show mass-produced micro-heart tissues and their mature phenotype, which were assessed for their response to various positive inotropic and chronotropic agents (FIGS. 10A-10D). To grow mature micro-heart tissue, physiological (15% strain=~2.13 μm sarcomere length) stretching cycles were applied, in addition to constant bi-phasic, low energy (5-10 V, 1 ms duration) electrical stimulation, and maturation medium containing appropriate concentrations and combinations of fatty acids and other factors, including triiodothyronine, dexamethasone, taurine, creatine, and L-carnitine were used.
Human micro-heart tissues cultured for 35 days with electrical stimulation matured and loose its spontaneous beating. Myocardial fibrosis is more prevalent in HFpEF than in control, and Transforming growth factor beta (TGFβ) is a major profibrotic factor. […] The elevated diastolic stiffness and loss of contractile reserve are common in HFpEF patients. Some HFpEF patients, including hypertrophic cardiomyopathy, show a hypercontractile phenotype. A TGF-β signaling pathway in the pathogenesis of diabetes mellitus (DM) is well-known. Moreover, in rat models, the presence of diabetes led to the induction of a fetal gene program, typically seen in the setting of TGF-β over-expression and hypertrophy. Therefore, human induced pluripotent stem cell (iPSC) derived micro-heart tissue (NuHeart™ micro-heart tissue) will be used with TGFβ-treatment as a base of the proposed studies.
A force probe stretching approach was used to record the length-tension relationship to analyze cardiac contractility and stiffness of micro-heart tissue. Micro force-transducers (FIG. 11) of the mechanical assay device, Palpator™, measured resistance forces that were required to stretch micro-heart tissue growing in 96-well plates. As the probe moved down by a motorized arm, samples' cardiac contractile and baseline forces were measured at different tissue lengths. Sarcomere length was calibrated to strain (% of stretch over original sample length) according to a published protocol (Asnes, C. F. et al. Biophys. J. 2006. 91(5): pp. […]). (Fourier analysis of sarcomere patterns in fixed micro-heart tissue). In addition, other biological indicators such as calcium transients and action potential are measured using biological indicator dyes and high throughput microplate readers (FIGS. 13A-C). For example, micro-heart tissue with cardiomyocytes derived from gene-edited iPSC-derived cardiomyocytes was fabricated with a cardiac troponin T R92Q mutation (familial hypertrophic cardiomyopathy, i.e., “[…]”).

alpha-1 adrenoceptors = settings: read-out: IC50, affinity for alpha-1 adrenoceptors; cited from earlier work
[3] = test system: tissue constructs reconstituted with human fibroblasts / myofibroblasts; assay: Biomechanical phenotyping assay: isometric force on stretched bioengineered tissue constructs; assay type: cell-based
From the text: Fasudil (FIG. 1) is a small molecule inhibitor of Rho-kinase (ROCK) that regulates its downstream signal transduction pathways and biological activities, including smooth muscle cells' contractility. InvivoSciences's biomechanical phenotyping assay recorded isometric force by stretching bioengineered tissue-constructs (see, U.S. Pat. No. 10,732,174). The tissue constructs were reconstituted with human fibroblasts that recapitulate connective tissues. Those tissue constructs reconstituted with myofibroblasts recapitulate connective tissue developing fibrosis.

[4] = intravenous formulations; Satoh et al., Life Sci 2001; cited from earlier work
[5] = test system: engineered heart tissues (EHTs) derived from human induced pluripotent stem cells; assay: Long-term fasudil effects on engineered heart tissues (EHTs) with and without TGFβ, stress versus strain; assay type: cell-based; settings: short-term administration (less than 24 hours)
[6] = test system: human micro-heart tissues (iPSC-derived cardiomyocytes and non-muscle cells, mainly fibroblasts); assay: Biomechanical assay (length-tension) on micro-heart tissue constructs; assay type: cell-based; settings: for micro-heart tissue construct's stiffness (diastolic/passive stiffness): FIG. 7B
From the text: The micro-heart tissue fabrication process produced micro-heart tissues using human cardiomyocytes derived from induced pluripotent stem cells (iPSCs) and non-muscle cells, mainly fibroblasts. Therefore, fasudil is a promising drug candidate to reduce elevated diastolic stiffness of patients with heart failure with preserved ejection fraction (HFpEF). The development of fibrosis in the heart is observed in various types of cardiomyopathies, and heart failure (HF). Myocardial interstitial fibrosis, for example, contributes to left ventricular dysfunction leading to the development of heart failure. Fibrotic myocardium becomes stiffer than healthy tissue to develop diastolic dysfunction. Fasudil targets Rho-kinase (ROCK) that regulates the activity of non-muscle myosin independent of calcium homeostasis. Human cardiac fibroblasts express ROCK1 and ROCK2, which both regulate non-muscle cell contractility similarly. The reduction of ROCK2 had notable effects on the profibrotic gene (FIGS. 7A-B) and protein expression (FIGS. 7A-B).
A force probe stretching approach was used to record the length-tension relationship to analyze cardiac contractility and stiffness of micro-heart tissue. Micro force-transducers (FIG. 11) of the mechanical assay device, Palpator™, measured resistance forces that were required to stretch micro-heart tissue growing in 96-well plates. As the probe moved down by a motorized arm, samples' cardiac contractile and baseline forces were measured at different tissue lengths. Sarcomere length was calibrated to strain (% of stretch over original sample length) according to a published protocol (Asnes, C. F. et al. Biophys. J. 2006. 91(5): pp. 1800-1180). (Fourier analysis of sarcomere patterns in fixed micro-heart tissue). In addition, other biological indicators such as calcium transients and action potential are measured using biological indicator dyes and high throughput microplate readers (FIGS. 13A-C). […]

[7] = TGFβ-treated micro-heart (10 ng/mL, monitored >30 days)
[8] = NuHeart micro-heart tissue without TGFβ
[9] = long-term administration (3-14 days)

Transforming growth factor beta [TGFβ]
passive stiffness of EHTs ([1]; 1 ng/mL TGFβ from five days post-fabrication, 0 μM fasudil): increased
αSM actin expression ([2]; TGFβ treated sample, Western blot): increased expression; also recorded: elevated
cardiac contractility of micro-heart [2, 7]: increasing
diastolic stress (stiffening) of micro-heart [2, 7]: increasing
ISO-induced positive inotropic and chronotropic responses ([2]; chronic TGFβ treatment): impaired

CC(C)NCC(O)c1ccc(O)c(O)c1 (stereo not shown) [ISO, isoproterenol]
contractile amplitude [2, 8]: increased
duration of contraction (chrotropic response) [2, 8]: shortened
response of mature micro-heart tissues ([2]; after isoproterenol (ISO) treatment): positive inotropic and chronotropic responses
response of contractile force to ISO ([2]; micro-heart tissue with TGFβ): blunted response

CN1CCN(C2=Nc3cc(F)ccc3Cc3ccccc32)CC1 [Fluperlapine]
IC50 (alpha-1 adrenoceptors): ~10 nM

O=S(=O)(c1cccc2cnccc12)N1CCCNCC1 [fasudil, Fasudil]
cardiac contractility in TGFβ-treated EHTs ([1]; 10 μM fasudil, by day 29): substantially reduce
effect on passive stiffness, TGFβ-treated tissues versus untreated ([1]; TGFβ-treated (1 ng/mL) EHTs): more pronounced effect
passive stiffness of EHTs ([1]; both with and without TGFβ (1 ng/mL) treatment, fasudil 1, 3, 10 µM): effectively reduced
cardiac contractility in EHTs ([1]; by day 29, irrespective of TGFβ treatment): reduced
cardiac contractility in EHTs [1, 9]: reduce
passive stiffness in EHTs [1, 9]: reduce
impact on cardiac contractility ([1]; one day after treatment (data not shown)): less significant
contractility of tissue constructs [3]: reduced
tissue stiffness of tissue constructs [3]: reduced
plasma concentration [4]: approximately 0.36 μM
cardiac contractility in EHTs [5]: without significantly affecting
passive stiffness in EHTs [5]: effectively reduced
cardiac contractility of the micro-heart tissues ([6]; FIG. 7A): did not change
micro-heart tissue construct's stiffness (diastolic/passive stiffness) [6]: reduced the micro-heart tissue construct's stiffness dose-dependently
micro-heart tissue construct's stiffness (diastolic/passive stiffness) ([6]; listed as Fasudil): reduced
